Where a name gives a salt, the structure may show the parent alone.

In this experiment the test system is MPXV strain hMPXV/USA/MA001/2022 (Lineage B.1, Clade IIb). The class given is cell-based, Mpox virus (MPXV).
Consider `C=CCn1cc(-c2ccc(NC(=O)Nc3cc(C(C)(C)C)on3)cc2)c2c(N)ncnc21` [MC-FLT3-IN-4, FLT3-IN-4], for which the “Duplicate of Duplicate of Hits: No CPE” value is listed as 1.

For `CN(C)C/C=C/C(=O)Nc1cc2c(Nc3ccc(F)c(Cl)c3)ncnc2cc1O[C@H]1CCOC1` [NKIL-Afatinib (BIBW2992), Afatinib], the “Duplicate of Duplicate of Hits: No CPE” value turned out to be 1.

As to `COc1cc2ncnc(Nc3cccc(I)c3)c2cc1OC` [MC-AG1557, AG1557], the “Duplicate of Duplicate of Hits: No CPE” value is given as 1.

In the case of `C=CC(=O)N1CCC[C@@H](n2nc(-c3ccc(Oc4ccccc4)cc3)c(C(N)=O)c2N)C1` [MC-Btk inhibitor 2, Btk inhibitor 2], the “Duplicate of Duplicate of Hits: No CPE” value is on record as 1.

For `CCN1CCC(Nc2ccc3c(c2)/C(=C(\c2cccc(F)c2)c2ncc(C)[nH]2)C(=O)N3)CC1` [MC-Tyrosine kinase-IN-1, Tyrosine kinase-IN-1], the “Duplicate of Duplicate of Hits: No CPE” value worked out at 1.

Consider `C=CC(=O)Nc1cc(Nc2nccc(-c3cn(C)c4ccccc34)n2)c(OC)cc1N(C)CCNC.CS(=O)(=O)O.CS(=O)(=O)O.CS(=O)(=O)O` [MC-AZ7550 Mesylate, AZ7550 Mesylate], for which the “Duplicate of Duplicate of Hits: No CPE” value was 1.

Turning to `COc1ccc(N(C(=O)Oc2cc(C(=O)Nc3cccc(C(F)(F)F)c3)ccc2C)c2ccnc(Nc3ccc(N4CCN(C)CC4)cc3)n2)c(OC)c1` [MC-WH-4-025, WH-4-025], the “Duplicate of Duplicate of Hits: No CPE” value was 1.

Turning to `CCS(=O)(=O)c1cc(Nc2ncc(F)c(N(Cc3ccccc3C#N)c3cc(CO)ccc3C)n2)ccc1N1CCN(C)CC1` [MC-AZ13705339, AZ13705339], the “Duplicate of Duplicate of Hits: No CPE” value stood at 1.

Turning to `Cc1cccc(/C=N/Nc2cc(N3CCOCC3)nc(OCCc3ccccn3)n2)c1` [MC-Apilimod, Apilimod], the “Duplicate of Duplicate of Hits: No CPE” value worked out at 1.

Take `C#Cc1cccc(Nc2ncnc3cc(OC)c(OCCCN4CCOCC4)cc23)c1` [MC-NRC-2694, NRC-2694]: the “Duplicate of Duplicate of Hits: No CPE” value came out at 1.

Take `C=CC(=O)Nc1cc(Nc2nccc(-n3cc(CN(C)C)c(-c4ccccc4)n3)n2)c(OC)cc1N1CCOCC1` [MC-Lazertinib, Lazertinib]: the “Duplicate of Duplicate of Hits: No CPE” value is 1.

`C=CC(=O)Nc1cc(Nc2nccc(-c3cn(C4CC4)c4ccccc34)n2)c(OC)cc1N(C)CCN(C)C` [MC-Almonertinib, Almonertinib]: the “Duplicate of Duplicate of Hits: No CPE” value amounted to 1.

With `Nc1ccc(-c2ccc3ncc4ccc(=O)n(-c5cccc(C(F)(F)F)c5)c4c3c2)cn1` [NKIL-Torin 2, Torin 2], the “Duplicate of Duplicate of Hits: No CPE” value is listed as 1.

As to `CCOc1cc2ncc(C#N)c(Nc3ccc(OCc4ccccn4)c(Cl)c3)c2cc1NC(=O)/C=C/CN(C)C.O=C(O)/C=C\C(=O)O` [MC-Neratinib (maleate), Neratinib (maleate)], the “Duplicate of Duplicate of Hits: No CPE” value is 1.

Consider `C=CC(=O)Nc1cccc(-c2c(-c3ccccc3)oc3ncnc(N[C@H](CO)c4ccccc4)c23)c1` [MC-EGFR-IN-9, EGFR-IN-9], for which the “Duplicate of Duplicate of Hits: No CPE” value was 1.

Take `COc1cc(F)c(F)c(Nc2ccc(I)cc2F)c1NS(=O)(=O)C1(C[C@H](O)CO)CC1` [NKIL-Refametinib (RDEA119, Bay 86-9766), Refametinib]: the “Duplicate of Duplicate of Hits: No CPE” value worked out at 1.

For `Cc1cc(C(=O)Nc2nc3cccc(Cl)c3n2[C@@H]2CCCCN(C(=O)/C=C/CN(C)C)C2)ccn1` [MC-Nazartinib, Nazartinib], the “Duplicate of Duplicate of Hits: No CPE” value is reported as 1.

Consider `O=C1Nc2cc3[nH]nc(-c4ccncc4)c3cc2CN1Cc1ccccc1` [MC-KO-947, KO-947], for which the “Duplicate of Duplicate of Hits: No CPE” value was 1.

On to `Cc1cccc([C@@H](CO)NC(=O)[C@@H](C)N2Cc3ccc(-c4nc(NC5CCOCC5)ncc4Cl)cc3C2=O)c1` [MC-ERK1/2 inhibitor 1, ERK1/2 inhibitor 1], for which the “Duplicate of Duplicate of Hits: No CPE” value was 1.

Take `C=CC(=O)Nc1cc(Nc2nccc(-c3c[nH]c4ccccc34)n2)c(OC)cc1N(C)CCN(C)C` [MC-AZ-5104, AZ-5104]: the “Duplicate of Duplicate of Hits: No CPE” value was found to be 1.

As to `C=CC(=O)N[C@@H]1CN(c2nc(Nc3cn(C)nc3OC)c3ncn(C)c3n2)C[C@H]1F` [MC-Mavelertinib, Mavelertinib], the “Duplicate of Duplicate of Hits: No CPE” value was 1.

Regarding SBI-581 [MC-SBI-581], the “Duplicate of Duplicate of Hits: No CPE” value is on record as 1.

In the case of `C=CC(=O)Nc1cc(Nc2ncc(C(=O)OC(C)C)c(-c3cn(C)c4ccccc34)n2)c(OC)cc1N(C)CCN(C)C` [MC-Mobocertinib, Mobocertinib], the “Duplicate of Duplicate of Hits: No CPE” value was 1.

Consider `C=CC(=O)N1C[C@H](COc2nc(Nc3cnn(C)c3)nc3[nH]cc(Cl)c23)[C@@H](OC)C1` [MC-PF-06459988, PF-06459988], for which the “Duplicate of Duplicate of Hits: No CPE” value is given as 1.

For the molecule `Cc1c(CN2CCN(C(=O)[C@H](C)O)CC2)sc2c(N3CCOCC3)nc(-c3cnc(N)nc3)nc12` [NKIL-GDC-0980 (RG7422), Apitolisib], the “Duplicate of Duplicate of Hits: No CPE” value turned out to be 1.

For the molecule `C=CC(=O)Nc1cc(Nc2nccc(-c3c4n(c5ccccc35)CCCC4)n2)c(OC)cc1N(C)CCN(C)C` [MC-Oritinib, Oritinib], the “Duplicate of Duplicate of Hits: No CPE” value is reported as 1.

With `C=CC(=O)Nc1cc2c(Nc3ccc(F)c(Cl)c3)ncnc2cc1C#CC(C)(C)N1CCN(C)CC1` [MC-AV-412 (free base), AV-412 (free base)], the “Duplicate of Duplicate of Hits: No CPE” value was 1.

Consider `O=C(N/N=C/c1c(O)ccc2ccccc12)c1cc(-c2ccc3ccccc3c2)n[nH]1` [MC-SKI-I, SKI-I], for which the “Duplicate of Duplicate of Hits: No CPE” value was 1.

In the case of `N[C@H]1CC[C@H](Nc2nc(Nc3ccc(C(=O)N4CCCCC4)cc3)c3ncn(-c4cccc(F)c4)c3n2)CC1` [MC-Purfalcamine, Purfalcamine], the “Duplicate of Duplicate of Hits: No CPE” value came to 1.

In the case of `C=CC(=O)Nc1cc(Nc2nccc(-c3cn(C)c4ccccc34)n2)c(OC)cc1N(C)CCN(C)C.CS(=O)(=O)O` [MC-Osimertinib (mesylate), Osimertinib (mesylate)], the “Duplicate of Duplicate of Hits: No CPE” value stood at 1.

For `Cn1nccc1Nc1nccc(-c2cc3c(s2)C(C)(C)N(CCN2CCOCC2)C3=O)n1` [MC-Temuterkib, Temuterkib], the “Duplicate of Duplicate of Hits: No CPE” value stood at 1.

Take `C=CC(=O)Nc1cccc(-n2c(=O)cc(C)c3cnc(Nc4ccc(OCCN(C)C)cc4OC)nc32)c1.O=C(O)C(F)(F)F` [MC-EGFR-IN-1 (TFA), EGFR-IN-1 (TFA)]: the “Duplicate of Duplicate of Hits: No CPE” value is 1.

For the molecule `O=C(Nc1ccc2[nH]nc(-c3ccncc3)c2c1)[C@@H]1CCN(CC(=O)N2CCN(c3ccc(-c4ncccn4)cc3)CC2)C1` [MC-SCH772984, SCH772984], the “Duplicate of Duplicate of Hits: No CPE” value is reported as 1.

As to `O=C(c1ccc(F)c(F)c1Nc1ccc(I)cc1F)N1CC(O)([C@@H]2CCCCN2)C1` [NKIL-Cobimetinib (GDC-0973, RG7420), Cobimetinib], the “Duplicate of Duplicate of Hits: No CPE” value is reported as 1.

With `CNC(=O)CN1CCC(Oc2cc3c(Nc4cccc(Cl)c4F)ncnc3cc2OC)CC1` [NKIL-AZD8931 (Sapitinib), Sapitinib], the “Duplicate of Duplicate of Hits: No CPE” value came out at 1.

With `C=CC(=O)Nc1cc(C)ccc1Nc1nc(Nc2cc(OC)ncc2C)ncc1C(F)(F)F` [MC-CC-90003, CC-90003], the “Duplicate of Duplicate of Hits: No CPE” value is 1.

As for `N[C@@H]1c2ccccc2OC12CCN(c1cnc3c(N4CCCc5ncccc54)n[nH]c3n1)CC2` [MC-Migoprotafib, Migoprotafib], the “Duplicate of Duplicate of Hits: No CPE” value is 1.

On to `CCN1CCN(Cc2ccc(-c3cc4c(N[C@H](C)c5ccccc5)ncnc4[nH]3)cc2)CC1` [NKIL-AEE788 (NVP-AEE788), AEE788], for which the “Duplicate of Duplicate of Hits: No CPE” value was found to be 1.

Turning to `O=C(Nc1ccncc1)Nc1ccc(-c2nc(N3CCOCC3)nc(N3C4CCC3COC4)n2)cc1` [MC-PKI-179 (hydrochloride), PKI-179 (hydrochloride)], the “Duplicate of Duplicate of Hits: No CPE” value is listed as 1.

With `C=CC(=O)N1CCC[C@@H](n2c(=O)n(-c3ccc(Oc4ccccc4)cc3)c3c(N)nccc32)C1` [MC-Tolebrutinib, Tolebrutinib], the “Duplicate of Duplicate of Hits: No CPE” value worked out at 1.

Take `CN(C)C/C=C/C(=O)Nc1cc2c(Nc3ccc(Cl)c(Br)c3)ncnc2cn1` [MC-Tarlox-TKI, Tarlox-TKI]: the “Duplicate of Duplicate of Hits: No CPE” value was 1.

On to `COc1cc2ncnc(Nc3ccc(F)c(Cl)c3)c2cc1NC(=O)/C=C/CN1CCCCC1` [NKIL-Dacomitinib (PF299804, PF299), Dacomitinib], for which the “Duplicate of Duplicate of Hits: No CPE” value is on record as 1.

Take `CN(C)C/C=C/C(=O)Nc1cccc(-c2c(-c3ccccc3)oc3ncnc(N[C@H](CO)c4ccccc4)c23)c1` [MC-DBPR112, DBPR112]: the “Duplicate of Duplicate of Hits: No CPE” value was determined as 1.

For `COc1ncc(-c2ccc3nccc(C#CCN4CCN(S(C)(=O)=O)CC4)c3c2)cc1NS(=O)(=O)c1ccc(F)cc1F` [MC-NSC781406, NSC781406], the “Duplicate of Duplicate of Hits: No CPE” value came to 1.

In the case of `CC(=O)Nc1cccc(-n2c(=O)n(C3CC3)c(=O)c3c(Nc4ccc(I)cc4F)n(C)c(=O)c(C)c32)c1.C[S+](C)[O-]` [MC-Trametinib (DMSO solvate), Trametinib (DMSO solvate)], the “Duplicate of Duplicate of Hits: No CPE” value turned out to be 1.

Turning to `C=CC(=O)Nc1cc(Nc2ncc(C(=O)OC(C)C)c(-c3cn(C)c4ccccc34)n2)c(OC)cc1N(C)CCN(C)C.O=C(O)CCC(=O)O` [MC-Mobocertinib (succinate), Mobocertinib (succinate)], the “Duplicate of Duplicate of Hits: No CPE” value worked out at 1.

Consider `C=CC(=O)Nc1cc2c(Nc3ccc(OCc4ccccn4)c(Cl)c3)ncnc2cc1OCCN1CCOCC1` [MC-Tuxobertinib, Tuxobertinib], for which the “Duplicate of Duplicate of Hits: No CPE” value worked out at 1.

On to `Cc1ccc(C(=O)Nc2ccc(CN3CCN(C)CC3)c(C(F)(F)F)c2)cc1C#Cc1cnc2cccnn12.Cl` [MC-Ponatinib (hydrochloride), Ponatinib (hydrochloride)], for which the “Duplicate of Duplicate of Hits: No CPE” value was determined as 1.

In the case of `CCN(CC)CCNC(=O)c1c(C)[nH]c(/C=C2\C(=O)Nc3ccc(Cl)cc32)c1C` [MC-SU11652, SU11652], the “Duplicate of Duplicate of Hits: No CPE” value worked out at 1.

For the molecule `C=CC(=O)N1CCC[C@H](n2c(=O)n(-c3ccc(Oc4ccccc4)cc3)c3c(N)ncnc32)C1` [MC-ONO-4059 (analog), ONO-4059 (analog)], the “Duplicate of Duplicate of Hits: No CPE” value is 1.

“Afatinib impurity 11 [MC-Afatinib impurity 11]”: the “Duplicate of Duplicate of Hits: No CPE” value was 1.
